According to patent publication US20200289645A1, “TREATMENTS AND METHODS FOR CONTROLLING HYPERTENSION” (Georgetown University, priority 2017, published 2020):
“Also recorded” adds a separate entry of the source. One block for each compound: values may come before it.

Assays:
cremaster arterioles = assay: Cremaster arteriole contractility in vivo (superfusion, intravital microscopy); design: species or system mice
Procedure: FIG. 3 depicts the effect of the induction of BP1 expression on cremaster arteriole contractility in vivo. 3A, Representative images of a single arteriole in a live animal at baseline, and after constriction or dilation by superfusion with AngII or acetylcholine respectively. The vessel diameter is recorded by intravital microphotography. 3B, Dose-response of AngII on arteriole diameter in mice with BP1 OFF (open symbols) or ON (for 48 hours; closed symbols). The FGFR kinase inhibitor PD173074 (PD) was administered intraperitoneally to a subset of animals (red symbols). […] 3C, Dose response of Phenylephrine (PE) on cremaster arteriole diameter in mice with BP1 OFF (open symbols) or ON (for 48 hours; closed symbols). Mean±SEM, n=4 animals/group.
To evaluate whether conditional BP1 expression sensitized resistance vessels in vivo, cremaster arterioles were exposed in anesthetized mice and superfused locally with vasoconstrictor or -dilator ligands. Representative intravital microscopic images of an arteriole at baseline, with AngII (constriction) or acetylcholine (dilation) superfusion is shown in FIG. 3A. […] This sensitization was prevented by pretreatment of animals with the FGFR kinase inhibitor PD173074 23 (FIG. 3B).
Thus, phenylephrine (PE) was selected as a ligand that activates alphal-adrenergic receptors. […] Neither the EC50 (2 μM) nor the maximal effect of PE were different between the BP1 ON and OFF groups (FIG. 3C). Thus, conditional expression of BP1 sensitizes arterioles to AngII in vivo. This sensitization was dependent on FGFR signaling.

[1] = system: isolated renal afferent arterioles; assay: Isolated perfused renal afferent arteriole contractility; format: cell-based, mice
Excerpt: FIG. 4 depicts the effect of BP1 on isolated renal afferent arteriole contractility. 4A, Isolated perfused renal afferent arteriole mounted on a perfusion pipette with diameter recorded. The internal diameter is 10 to 11 micrometers under control conditions (=100%). 4B to 4D, Impact of BP1 induction and/or FGF2 knockout (FGF2−/−) on angiotensin II (AngII) or norepinephine (NE) contractility. 4B, Effect of conditional BP1 expression (BP1 ON/OFF). […] The effect of AngII in FGF2−/− mice is shown for comparison (see panel C). 4C, Effect of AngII in afferent arterioles from FGF2−/− mice. […] BP1 alone or FGF2 alone are shown for comparison. 4D, Effect of NE in afferent arterioles from wt and FGF2−/− mice. Contractility induced by NE is not affected in FGF2−/− mice.
Isolated vessels provide an approach for the analysis of vascular function that is not affected by systemic cardiovascular regulation in the intact animal. BP1 up-regulation related to human hypertension was found in the kidneys that are key organs in systemic blood pressure regulation. Thus, the impact of BP1 expression was evaluated in isolated renal afferent arterioles that are the major renal resistance vessels. […] Addition of AngII to this preparation leads to a concentration-dependent constriction. […] Thus, the AngII contractile effect depends on FGFR signaling in isolated vessels as well as in arterioles in vivo (FIG. 3B).
The blockade of AngII effects in vessels from wt mice by an FGFR kinase inhibitor (FIG. 4B) corroborates the crucial role of FGF signaling for AngII efficacy. It is noteworthy that vessels from FGF2−/− mice still contracted in response to other ligands. For example, the effect of norepinephrine (NE) was indistinguishable between FGF2−/− and wt controls (FIG. 4D) indicating a selective crosstalk between AngII and FGF signaling. Renal AngII receptor 1 (AT1R) mRNA was not changed upon induction of BP1 expression or in FGF2−/− mice.
Because FGF2 and BP1 are extracellularly acting proteins, recombinant proteins were added to renal afferent arterioles from FGF2−/− mice to assess if this would rescue AngII vasoconstriction.

[2] = system: conscious transgenic mice; assay: Mean arterial pressure (MAP) by telemetry in conscious conditional BP1 transgenic mice; format: in vivo; settings: night time MAP
Procedure: FIG. 2 depicts the effect of conditional expression of the BP1 transgene and of inhibitors on mean arterial pressure (MAP) and heart rate (HR). 2A, 2B, Circadian changes in MAP (A) and HR (B) by telemetry of conscious mice. Averages for 10 days before (BP1 OFF, open symbols) and 10 days after the induction of the BP1 transgene (BP1 ON, closed symbols) relative to the 24 hour clock time. Dark and light periods are indicated. Mean±SEM values (for n=10 time points) from one representative animal (total n=6). P<0.0001 by non-linear regression analysis and ANOVA. 2C, Effect of induction of BP1 transgene expression on night time MAP. Gene expression was induced by switching from a tetracycline containing to a regular chow (+DOX to −DOX; open and filled circles). Non-transgenic littermates (non-TG; triangles) were subjected to the same diet schedule. Mean±SEM of night time MAP; n=6 per group. ANOVA analysis of BP1 ON versus OFF or versus control group. ***, P<0.0001. 2D, 2E, Effect of treatment with candesartan (D) or tempol (E) on night time MAP of animals with the BP1 transgene OFF or ON. Mean±SEM; n=5 per group. *, P<0.05; **, P<0.01; ***, P<0.0001 by ANOVA.
To test the effect of conditional expression of BP1, mean arterial pressure (MAP) was monitored by telemetry in conscious transgenic mice. Under control conditions (BP1 OFF) there was a circadian rhythm of MAP that varied by 20 mm Hg between periods of activity (night time) and rest (day time). A sinus wave function described the day/night variation of the data (FIG. 2A). […] This overall increase in MAP coincided with a significant decrease in the heart rate and a dampened amplitude of circadian regulation (FIG. 2B). The increase of blood pressure occurred within two days of a switch to the tetracycline-free, regular diet in parallel with the induction of the BP1 transgene (FIG. 2C).
The increase in MAP and decrease in heart rate after induction of BP1 expression (FIG. 2A,B) was reminiscent of an angiotensin-like vasopressor effect that depends on reactive oxygen species (ROS) signaling. […]

FGF2−/− mice = assay: Telemetric MAP in FGF2-/- mice after exogenously administered AngII; format: in vivo; settings: FGF2−/− relative to wild-type mice
Excerpt: Kidneys contain amongst the highest concentrations of FGF2 protein that is immobilized in the extracellular matrix and can be released by BP1. To assess a contribution by FGF2, the efficacy of AngII was investigated and the crosstalk with BP1 in renal afferent arterioles from FGF2−/− mice. […] Also, the effect of exogenously administered AngII on MAP was reduced.

Compound: CCN(CC)CCCCNc1ncc2cc(-c3cc(OC)cc(OC)c3)c(NC(=O)NC(C)(C)C)nc2n1 [PD173074]
effect on AngII response in control animals (cremaster arterioles; BP1 OFF, intraperitoneal): small and insignificant effect
effect on BP1-induced sensitization to AngII vasoconstriction (cremaster arterioles; BP1 ON, pretreatment, intraperitoneal): prevented
effect on AngII constriction of afferent arterioles ([1]; 100 nM pretreatment of vessels): inhibited the effect of AngII

Compound: CC1(C)CC(O)CC(C)(C)N1[O] [Tempol, tempol]
effect on basal MAP ([2]; BP1 OFF): reduced basal MAP
effect on increase of MAP after BP1 induction [2]: prevented the increase in MAP after BP1 induction
effect on increase of MAP after BP1 induction ([2]; listed as tempol): prevented

Compound: NC[C@H](O)c1ccc(O)c(O)c1 [norepinephrine]
contractility in FGF2-/- versus wt afferent arterioles [1]: indistinguishable
contractility in FGF2-/- versus wt afferent arterioles ([1]; listed as NE): not affected

Compound: CC[C@H](C)[C@H](NC(=O)[C@H](Cc1ccc(O)cc1)NC(=O)[C@@H](NC(=O)[C@H](CCCNC(=N)N)NC(=O)[C@@H](N)CC(=O)O)C(C)C)C(=O)N[C@@H](Cc1c[nH]cn1)C(=O)N1CCC[C@H]1C(=O)N[C@@H](Cc1ccccc1)C(=O)O [AngII, Angiotensin II]
AngII effect in afferent arterioles after conditional BP1 transgene expression ([1]; BP1 ON versus OFF): increases the AngII effect; also recorded: significantly enhanced effect
contraction of afferent arterioles from FGF2-/- mice ([1]; FGF2−/− mice): abolished; also recorded: failed to induce a contraction
effect of exogenously administered AngII on MAP (FGF2−/− mice): reduced

EC50 (cremaster arterioles; Mus musculus, not different between BP1 ON and OFF groups, read-out: EC50 of PE on cremaster arteriole diameter): 2000 nM
Compound: CNC[C@H](O)c1cccc(O)c1 [PE, phenylephrine]
sensitization of vessels by BP1 expression (cremaster arterioles; BP1 ON versus OFF): did not sensitize

Compound: FGF2: recombinant fibroblast growth factor 2 protein
rescue of AngII vasoconstriction in afferent arterioles from FGF2-/- mice ([1]; recombinant proteins added, 20 ng/ml for 30 min): did not impact the AngII response
